Assay results published in patent US12479847B2 (DANA-FARBER CANCER INSTITUTE, INC., priority 2019, dated 2025).

Target: human LRRK2 kinase (Homo sapiens, UniProt Q5S007)
Conditions: LRRK2, ADP-Glo, ATP 10 μM, 60 minutes at 25° C.

Sequence of human LRRK2 kinase (Q5S007 whole entry): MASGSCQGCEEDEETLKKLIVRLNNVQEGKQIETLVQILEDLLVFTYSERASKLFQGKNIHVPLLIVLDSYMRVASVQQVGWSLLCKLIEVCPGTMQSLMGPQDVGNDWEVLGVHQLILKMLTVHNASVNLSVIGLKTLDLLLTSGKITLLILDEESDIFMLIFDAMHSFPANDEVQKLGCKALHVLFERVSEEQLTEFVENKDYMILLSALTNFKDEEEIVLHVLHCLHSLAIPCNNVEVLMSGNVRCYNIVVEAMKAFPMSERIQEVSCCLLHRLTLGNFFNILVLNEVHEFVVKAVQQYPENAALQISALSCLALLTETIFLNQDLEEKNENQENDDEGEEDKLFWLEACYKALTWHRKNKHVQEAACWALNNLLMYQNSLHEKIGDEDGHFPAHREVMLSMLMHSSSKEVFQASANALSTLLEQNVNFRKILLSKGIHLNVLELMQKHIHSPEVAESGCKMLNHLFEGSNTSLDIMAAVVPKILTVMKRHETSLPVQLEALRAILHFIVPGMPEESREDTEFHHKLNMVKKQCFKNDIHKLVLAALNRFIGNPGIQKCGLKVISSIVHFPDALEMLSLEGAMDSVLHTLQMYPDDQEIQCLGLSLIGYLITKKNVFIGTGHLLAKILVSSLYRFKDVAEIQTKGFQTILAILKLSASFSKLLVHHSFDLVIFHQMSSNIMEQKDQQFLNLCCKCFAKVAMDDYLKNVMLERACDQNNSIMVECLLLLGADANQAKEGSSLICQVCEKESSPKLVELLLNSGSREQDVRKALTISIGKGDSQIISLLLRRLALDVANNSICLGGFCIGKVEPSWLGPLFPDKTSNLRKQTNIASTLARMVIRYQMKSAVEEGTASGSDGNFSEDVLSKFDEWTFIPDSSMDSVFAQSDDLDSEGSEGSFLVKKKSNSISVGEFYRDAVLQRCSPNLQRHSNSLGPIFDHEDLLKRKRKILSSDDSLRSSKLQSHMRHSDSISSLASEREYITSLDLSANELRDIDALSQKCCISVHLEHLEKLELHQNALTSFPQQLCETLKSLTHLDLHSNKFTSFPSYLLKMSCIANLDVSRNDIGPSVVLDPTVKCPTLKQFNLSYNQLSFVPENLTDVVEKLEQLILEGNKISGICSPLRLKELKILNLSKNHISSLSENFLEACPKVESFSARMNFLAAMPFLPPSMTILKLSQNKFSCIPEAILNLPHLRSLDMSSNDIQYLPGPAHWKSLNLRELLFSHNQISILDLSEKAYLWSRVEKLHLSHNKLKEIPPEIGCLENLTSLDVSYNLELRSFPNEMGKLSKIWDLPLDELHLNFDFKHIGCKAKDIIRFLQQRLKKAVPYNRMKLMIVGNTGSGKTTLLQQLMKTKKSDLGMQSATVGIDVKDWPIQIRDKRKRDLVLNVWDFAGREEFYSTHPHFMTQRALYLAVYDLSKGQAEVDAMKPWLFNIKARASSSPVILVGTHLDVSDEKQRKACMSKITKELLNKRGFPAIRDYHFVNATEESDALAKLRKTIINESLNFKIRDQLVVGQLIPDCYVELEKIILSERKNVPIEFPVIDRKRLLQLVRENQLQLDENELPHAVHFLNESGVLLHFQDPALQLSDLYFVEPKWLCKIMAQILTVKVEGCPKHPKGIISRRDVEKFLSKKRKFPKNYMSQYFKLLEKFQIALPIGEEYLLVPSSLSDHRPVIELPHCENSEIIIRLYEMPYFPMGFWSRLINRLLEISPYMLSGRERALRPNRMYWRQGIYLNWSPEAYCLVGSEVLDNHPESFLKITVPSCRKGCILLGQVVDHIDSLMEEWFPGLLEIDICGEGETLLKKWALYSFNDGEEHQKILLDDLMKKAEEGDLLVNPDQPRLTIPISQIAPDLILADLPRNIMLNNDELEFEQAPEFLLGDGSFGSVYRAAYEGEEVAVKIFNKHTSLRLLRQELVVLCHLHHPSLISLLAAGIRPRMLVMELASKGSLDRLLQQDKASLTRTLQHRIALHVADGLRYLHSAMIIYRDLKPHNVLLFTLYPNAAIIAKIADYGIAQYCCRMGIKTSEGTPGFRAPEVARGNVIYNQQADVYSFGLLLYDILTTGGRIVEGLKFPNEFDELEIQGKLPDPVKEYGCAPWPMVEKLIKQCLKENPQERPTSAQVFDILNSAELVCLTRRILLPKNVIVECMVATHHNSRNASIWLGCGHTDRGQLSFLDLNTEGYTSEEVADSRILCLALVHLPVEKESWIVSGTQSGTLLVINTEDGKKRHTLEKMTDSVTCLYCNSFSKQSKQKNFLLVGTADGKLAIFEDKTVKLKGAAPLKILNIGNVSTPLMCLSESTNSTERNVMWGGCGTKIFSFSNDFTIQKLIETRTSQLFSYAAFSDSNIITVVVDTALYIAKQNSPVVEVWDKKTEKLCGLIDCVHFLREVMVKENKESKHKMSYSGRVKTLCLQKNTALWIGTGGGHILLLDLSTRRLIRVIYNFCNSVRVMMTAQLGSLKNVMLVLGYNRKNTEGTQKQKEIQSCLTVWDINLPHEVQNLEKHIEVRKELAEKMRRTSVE

| SMILES | IC50 [nM] |
| --- | --- |
| CCCCNc1nc(Nc2ccc(S(=O)(=O)N3CCC(N4CCOCC4)CC3)cc2OC)nc2[nH]cc(Cl)c12 [Compound 72, N4-butyl-5-chloro-N2-(2-methoxy-4-((4-morpholinopiperidin-1-yl)sulfonyl)phenyl)-7H-pyrrolo[2,3-d]pyrimidine-2,4-diamine] | 10 to 100 |
| CCCCNc1nc(Nc2ccc(S(C)(=O)=O)cc2OC)nc2[nH]cc(Cl)c12 [Compound 73, N4-butyl-5-chloro-N2-(2-methoxy-4-(methylsulfonyl)phenyl)-7H-pyrrolo[2,3-d]pyrimidine-2,4-diamine] | 10 to 100 |
| COc1cc(P2(=O)CCN(C3CC3)CC2)ccc1Nc1nc(NC2CCCC2)c2c(Cl)c[nH]c2n1 [Compound 78, 4-(4-((5-chloro-4-(cyclopentylamino)-7H-pyrrolo[2,3-d]pyrimidin-2-yl)amino)-3-methoxyphenyl)-1-cyclopropyl-1,4-azaphosphinane 4-oxide] | 10 to 100 |
| CNc1nc(Nc2ccc(P3(=O)CCN(C(C)=O)CC3)cc2OC)nc2[nH]cc(Cl)c12 [Compound 82, 1-(4-(4-((5-chloro-4-(methylamino)-7H-pyrrolo[2,3-d]pyrimidin-2-yl)amino)-3-methoxyphenyl)-4-oxido-1,4-azaphosphinan-1-yl)ethan-1-one] | < 10 |
| CCNc1nc(Nc2ccc(P3(=O)CCN(C4CC4)CC3)cc2OC)nc2[nH]cc(Cl)c12 [Compound 84, 4-(4-((5-chloro-4-(ethylamino)-7H-pyrrolo[2,3-d]pyrimidin-2-yl)amino)-3-methoxyphenyl)-1-cyclopropyl-1,4-azaphosphinane 4-oxide] | 10 to 100 |
| CNc1nc(Nc2ccc(P3(=O)CCN(C4CC4)CC3)cc2OC)nc2[nH]cc(Cl)c12 [Compound 85, 4-(4-((5-chloro-4-(methylamino)-7H-pyrrolo[2,3-d]pyrimidin-2-yl)amino)-3-methoxyphenyl)-1-cyclopropyl-1,4-azaphosphinane 4-oxide] | 10 to 100 |
| COc1cc(S(=O)(=O)N2CCC(N3CCOCC3)CC2)ccc1Nc1nc(NC(C)C)c2c(Cl)c[nH]c2n1 [Compound 87, 5-chloro-N4-isopropyl-N2-(2-methoxy-4-((4-morpholinopiperidin-1-yl)sulfonyl)phenyl)-7H-pyrrolo[2,3-d]pyrimidine-2,4-diamine] | 100 to 1000 |
| COc1cc(P2(=O)CCN(C(C)=O)CC2)ccc1Nc1nc(NC(C)C)c2c(Cl)c[nH]c2n1 [Compound 89, 1-(4-(4-((5-chloro-4-(isopropylamino)-7H-pyrrolo[2,3-d]pyrimidin-2-yl)amino)-3-methoxyphenyl)-4-oxido-1,4-azaphosphinan-1-yl)ethan-1-one] | 10 to 100 |
| COc1cc(P2(=O)CCN(C3CC3)CC2)ccc1Nc1nc(NC2CC2)c2c(Cl)c[nH]c2n1 [Compound 90, 4-(4-((5-chloro-4-(cyclopropylamino)-7H-pyrrolo[2,3-d]pyrimidin-2-yl)amino)-3-methoxyphenyl)-1-cyclopropyl-1,4-azaphosphinane 4-oxide] | 10 to 100 |
| COc1cc(P2(=O)CCN(C(C)=O)CC2)ccc1Nc1nc(NC2CC2)c2c(Cl)c[nH]c2n1 [Compound 91, 1-(4-(4-((5-chloro-4-(cyclopropylamino)-7H-pyrrolo[2,3-d]pyrimidin-2-yl)amino)-3-methoxyphenyl)-4-oxido-1,4-azaphosphinan-1-yl)ethan-1-one] | < 10 |
| COc1cc(P2(=O)CCN(C(C)=O)CC2)ccc1Nc1nc(NC2CCC2)c2c(Cl)c[nH]c2n1 [Compound 92] | 10 to 100 |
| COc1cc(S(C)(=O)=O)ccc1Nc1nc(N[C@H]2CCOC2)c2c(Cl)c[nH]c2n1 [Compound 94, (S)-5-chloro-N2-(2-methoxy-4-(methylsulfonyl)phenyl)-N4-(tetrahydrofuran-3-yl)-7H-pyrrolo[2,3-d]pyrimidine-2,4-diamine] | < 10 |
| COc1cc(P2(=O)CCN(C3CC3)CC2)ccc1Nc1nc(NCC(C)C)c2c(Cl)c[nH]c2n1 [Compound 96, 4-(4-((5-chloro-4-(isobutylamino)-7H-pyrrolo[2,3-d]pyrimidin-2-yl)amino)-3-methoxyphenyl)-1-cyclopropyl-1,4-azaphosphinane 4-oxide] | 100 to 1000 |
| COc1cc(P2(=O)CCN(C(C)=O)CC2)ccc1Nc1nc(NCC(C)C)c2c(Cl)c[nH]c2n1 [Compound 97, 1-(4-(4-((5-chloro-4-(isobutylamino)-7H-pyrrolo[2,3-d]pyrimidin-2-yl)amino)-3-methoxyphenyl)-4-oxido-1,4-azaphosphinan-1-yl)ethan-1-one] | 10 to 100 |
| CCNc1nc(Nc2ccc(P3(=O)CCN(C(C)=O)CC3)cc2OC)nc2[nH]cc(Cl)c12 [Compound 98] | < 10 |

Results, then the compound that gave them:

| IC50 [nM] | SMILES |
| --- | --- |
| 10 to 100 | CCCCNc1nc(Nc2ccc(C(=O)N3CCOCC3)c3c2OCCO3)nc2[nH]cc(Cl)c12 [Compound 74, (8-((4-(butylamino)-5-chloro-7H-pyrrolo[2,3-d]pyrimidin-2-yl)amino)-2,3-dihydrobenzo[b][1,4]dioxin-5-yl)(morpholino)methanone] |
| < 10 | CNc1nc(Nc2ccc(C(=O)N3CCOCC3)c3c2OCC3)nc2[nH]cc(Cl)c12 [Compound 76, (7-((5-chloro-4-(methylamino)-7H-pyrrolo[2,3-d]pyrimidin-2-yl)amino)-2,3-dihydrobenzofuran-4-yl)(morpholino)methanone] |
| 10 to 100 | COc1cc(P2(=O)CCN(C3CCOCC3)CC2)ccc1Nc1nc(NC2CCCC2)c2c(Cl)c[nH]c2n1 [Compound 79] |
| 100 to 1000 | O=C(c1ccc(Nc2nc(NC3CCCCC3)c3c(Cl)c[nH]c3n2)c2c1CCO2)N1CCC(N2CCOCC2)CC1 [Compound 80, (7-((5-chloro-4-(cyclohexylamino)-7H-pyrrolo[2,3-d]pyrimidin-2-yl)amino)-2,3-dihydrobenzofuran-4-yl)(4-morpholinopiperidin-1-yl)methanone] |
| 10 to 100 | COc1cc(P2(=O)CCN(C3CCOCC3)CC2)ccc1Nc1nc(NC2CCCCC2)c2c(Cl)c[nH]c2n1 [Compound 81, 4-(4-((5-chloro-4-(cyclohexylamino)-7H-pyrrolo[2,3-d]pyrimidin-2-yl)amino)-3-methoxyphenyl)-1-(tetrahydro-2H-pyran-4-yl)-1,4-azaphosphinane 4-oxide] |
| 100 to 1000 | O=C(c1ccc(Nc2nc(NC3CCCCC3)c3c(Cl)c[nH]c3n2)c2c1CCO2)N1CCOCC1 [Compound 83, (7-((5-chloro-4-(cyclohexylamino)-7H-pyrrolo[2,3-d]pyrimidin-2-yl)amino)-2,3-dihydrobenzofuran-4-yl)(morpholino)methanone] |
| < 10 | CNc1nc(Nc2ccc(C(=O)N3CCC(N4CCOCC4)CC3)c3c2OCC3)nc2[nH]cc(Cl)c12 [Compound 86, (7-((5-chloro-4-(methylamino)-7H-pyrrolo[2,3-d]pyrimidin-2-yl)amino)-2,3-dihydrobenzofuran-4-yl)(4-morpholinopiperidin-1-yl)methanone] |
| 10 to 100 | CC(C)Nc1nc(Nc2ccc(C(=O)N3CCC(N4CCOCC4)CC3)c3c2OCCO3)nc2[nH]cc(Cl)c12 [Compound 88] |
| 100 to 1000 | COc1cc(P2(=O)CCN(C3CC3)CC2)ccc1Nc1nc(NC2CCCCC2)c2c(Cl)c[nH]c2n1 [Compound 93, 4-(4-((5-chloro-4-(cyclohexylamino)-7H-pyrrolo[2,3-d]pyrimidin-2-yl)amino)-3-methoxyphenyl)-1-cyclopropyl-1,4-azaphosphinane 4-oxide] |
| < 10 | O=C(c1ccc(Nc2nc(N[C@H]3CCOC3)c3c(Cl)c[nH]c3n2)c2c1OCCO2)N1CCOCC1 [Compound 95] |
